Results from patent US10681911B2, “Anthelminthic composition” (AgResearch Limited, priority 2016, dated 2020).

Legend:
Haemonchus controtus L3 = assay: Petri-dish laboratory study of efficacy against L3; settings: for Measured efficacy: 24 ml solution, live L3 recovered by Baermann funnel, 10 replicates; for effectiveness in killing L3: result in words
[1] = type: physicochemical
Haemonchus contortus L3 = settings: in vivo
[2] = system: nematode egg and larval stages in dung; assay: Mini dung egg hatch-survival assay; settings: treatments applied to fresh dung on days 0 through 7, harvested days 12-16
Protocol: All the dung samples were then left until day 12 when the first replicates were harvested. The last replicate was sampled on day 16. Hatched larvae were separated from the dung and numerated via microscopic examination. Town supply tap water was used for solution preparation and used as the reference control treatment. Sodium hypochlorite was added to tap-water to form a bleach solution containing 5% w/v NaOCl.

[3] = system: eggs of free-living parasitic nematodes; assay: Egg hatch assay
Protocol: Approximately 125 eggs were place in 24 well plate wells and treatments applied. After 24 hours, unhatched eggs and larvae were numerated by microscopic examination. Town supply tap water was used for solution preparation and used as the reference control treatment Sodium hypochlorite was added to tap-water to form a bleach solution containing 5% w/v NaOCl […]

## ammonium nitrate [NH4NO3 7%]
Haemonchus controtus L3
  Measured efficacy: 72%

## ammonium nitrate [NH4NO3 1.75%]
Haemonchus controtus L3
  Measured efficacy: −39%

## ammonium nitrate [NH4NO3 13.5%]
Haemonchus controtus L3
  Measured efficacy: 97%
  effectiveness in killing L3: effective in killing L3

## [Ca+2].[OH-].[OH-] [Ca(OH)2 0.025%, calcium hydroxide]
[1]
  pH 0: 11.3
Haemonchus controtus L3
  Measured efficacy: 43%

## ammonium nitrate [NH4NO3 3.5%]
Haemonchus controtus L3
  Measured efficacy: 12%

## [Ca+2].[OH-].[OH-] [Ca(OH)2 0.013%, calcium hydroxide]
[1]
  pH 0: 11.0
Haemonchus controtus L3
  Measured efficacy: 28%

## [Ca+2].[OH-].[OH-] [Ca(OH)2 0.1%, calcium hydroxide]
[1]
  pH 0: 12.0
Haemonchus controtus L3; listed as Ca(OH)2 0.100%
  Measured efficacy: 93%
Haemonchus controtus L3
  effectiveness in killing L3: effective in killing L3
Haemonchus contortus L3
  impact on L3 numbers in faeces: Neither ammonium nitrate nor calcium hydroxide applied alone or in combination had any impact on L3 numbers in faeces
  impact on L3 numbers on pasture: neither ammonium nitrate nor calcium hydroxide applied alone had any impact on L3 numbers on pasture

## OCl [Bleach, Sodium hypochlorite]
[2]
  impact on nematode development in dung: small impact on all stage of the nematode development from the egg through to the L1, 2 and 3 stages
[3]; after 24 hours, result in words
  effect on eggs and egg hatching: destroyed all the eggs
[3]; approximately 125 eggs per well, after 24 hours
  Average of % hatch: 0.0%
[3]; approximately 125 eggs per well, larvae counted after 24 hours
  Average of larvae: 0.0
[3]; approximately 125 eggs per well, unhatched eggs counted after 24 hours
  Average of eggs: 0.3

## [Ca+2].[OH-].[OH-] [Ca(OH)2 0.05%, calcium hydroxide]
[1]
  pH 0: 11.6
Haemonchus controtus L3; listed as Ca(OH)2 0.050%
  Measured efficacy: 69%
